Counter-ions that a name gives are not always drawn.
Assays:
[1] = system: ACHN cells; assay: Apoptosis assay (Cell Death Detection ELISA), ACHN; type: cell-based, human; details: 48 hours
Protocol: Apoptosis Assay—Apoptosis was analyzed using the Cell Death Detection ELISA (Roche, Indianapolis, Ind.) measuring cytoplasmic histone-associated mono- and oligonucleosome DNA fragments. Procedures were carried out according to the manufacturers protocol. Briefly, 1×10^5 cells were plated in 60 mm dishes and treated with various doses of ARA-211 or vehicle for 48 hours. Cells were lysed with the provided lysis buffer and lysate was incubated on the ELISA plate for 1 hour to capture the histone associated DNA indicative of apoptotic cells. Anti-DNA peroxidase conjugated antibody was added to detect the cleaved DNA and the microplate was washed and developed with ABTS substrate which was quantitated by microplate reader at 405 nm.

[2] = system: ACHN cells; assay: Nude mouse xenograft model, ACHN (s.c.); type: in vivo, nude mice; details: i.p. 200 mpk/day
Source text: Anti-tumor activity in nude mouse xenograft model—Female athymic nude (nu/nu) mice, 5-6 weeks old, were purchased from Charles River (Wilmington, Mass.) and allowed to acclimate in the animal facility for one week. After harvesting, A-549, SNB-19, ACHN, and HCT-116 cells were, resuspended in sterile PBS, and injected s.c. into the right and left flanks (10×10^6 cells per flank) of the mice as previously described (Sun et al., 2005). For MDA-MB-231, cells were harvested and resuspended in PBS (10×10^6 cells per 50 μl) and an equal volume of Matrigel (BD Biosciences, San Jose, Calif.). 100 μl of MDA-MB-231 cells in PBS/Matrigel were injected s.c. into the mammary fat pads between the 2nd and 3rd nipples on each side of the mice. Once the tumors reached approximately 200-300 mm^3 the mice were randomized and treated i.p. with 0.1 ml vehicle (PBS) or ARA-211. Each treatment group consisted of five mice (2 tumors per mouse, a total of 10 tumors). The tumor volumes were determined by measuring the length (l) and width (w) and calculating the volume (V=w^2l/2). Statistical significance between the control and treated animals was determined using a student's t test.

[3] = system: MDA-MB-231 cells; assay: Alamar Blue proliferation assay, MDA-MB-231; type: cell-based, human; details: MDA-MB-231 with CA-Mek; 10 μM, 48 hours
Protocol: Cell Lines and Transfections—All cell lines used were obtained from American Type Tissue Collection (ATCC), (Manassas, Va.), or from the DCTD Tumor Repository, (Frederick, Md.). Propagation was carried out according to ATCC protocols. Propagation media was obtained from Invitrogen Corporation (Carlsbad, Calif.). DNA transfections were carried out using TransIT-LT1 transfection reagent (Takara Mirus, Madison, Wis.) according to the manufacturer's protocol. Briefly, 4×10^5 MDA-MB-231 cells were grown to approximately 70% confluency in medium supplemented with 10% FBS (Atlanta Biologicals, Atlanta, Ga.) in the absence of antibiotics. For transfection, LT1 was pre-incubated in 200 μl per transfection in Opti-MEM (Invitrogen) for 20 minutes prior to addition of plasmid. […]
Alamar Blue proliferation assay—For proliferation assays using exogenous constitutively activated MEK or the B2AR antagonist ICI-118.551, Alamar Blue metabolism assay used to determine cell viability according to the manufacturers protocol (Biosource, Camarillo, Calif.). […] Media/Alamar Blue was removed from the cells and aliquoted into 96 well plates (100 μl per well) and fluorescence read on a Wallac Victor 2 plate reader at excitation 540 nm, and emission 615 nm.

[4] = system: HCT-116 cells; assay: Anchorage-independent growth (soft agar assay), HCT-116; type: cell-based, human
Protocol: Soft Agar Assay—Anchorage independent growth assays were performed as previously described (Lerner et al., 1997). Briefly, agar was diluted to 0.3% in propagation media containing 20,000 cells and either vehicle or ARA-211 and 1 ml of cell/agar mixture plated on top of 2 ml of a 0.6% layer of agar in medium alone. Cells were grown for three to four weeks at 37° C., 10% Co2 and were fed weekly with 100 μl per well of media/treatment. Quantification of colonies was done using a GS-700 scanning densitometer.

[5] = system: P-Erk 1/2; assay: P-Erk 1/2 levels (Western blotting), A-549; type: cell-based, human
Protocol: Western Blotting—Treated cell samples were lysed in 30 mM HEPES, 10 mM NaCl, 5 mM MgCl2, 25 mM NaF, 1 mM EGTA, 1% Triton-X-100, 10% Glycerol, 2 mM Sodium orthovanidate, 10 μg/mL aprotinin, 10 μg/mL soybean trypsin inhibitor, 25 μg/mL leupeptin, 2 mM phenylmethylsulfonylfluoride (PMSF), 6.4 mg/mL p-nitrophenylphosphate for 30 minutes at 4° C., and proteins run on SDS-PAGE gels then transferred to nitrocellulose membranes. Membranes were blocked in either 5% milk in PBS, pH 7.4, containing 0.1% Tween-20 (PBS-T) or 1% BSA in TBS, pH 7.5, containing 0.1% Tween-20 (TBS-T). Phospho-STAT3 and phospho-AKT antibodies were diluted in 1% BSA in TBS-T while phospho-c-Raf, phospho-Mek, and phospho-p44/p42 MAPK antibodies (Cell Signaling) were diluted in 5% milk in PBS-T for either 1 hour at room temperature or overnight at 4° C. HRP-conjugated secondary antibodies (Jackson ImmunoResearch, West Grove, Pa.) were diluted in 5% milk in PBS-T or TBS-T at a 1:1000 dilution for one hour at room temperature. Western blots results were visualized using enhanced chemiluminescence. Stripping of the membranes for reblotting was done using stripping buffer (62.5 mM Tris pH 7.6, 2% SDS, 0.7% 2-mercaptoethanol) at 50° C. for 30 minutes.

[6] = system: Rap-1; assay: Rap-1 activation assay, ACHN cells; type: cell-based, human
Protocol: The effect of B2AR stimulation on Rap1 was investigated using the following methods: A Rap-1 activation assay kit (Upstate, Temecula, Calif.) was used according to protocol to determine if stimulation of the B2AR by ARA-211, and subsequent downstream signaling resulting in inhibition of P-Erk 1/2, is mediated by activation of Rap-1 directly by the Rap-1 guanine nucleotide exchange factor Epac. […] Cells were incubated with drugs for 1 hour unless noted otherwise. Cells were then lysed, the positive control lysate was incubated with 10 mM EDTA and 100 μM GTPγS and incubated for 30 minutes to load GTP onto Rap-1. Lysates from all samples were then incubated with 25 μg GST-RalGDS-Rap-1 binding domain beads for 45 minutes, washed with assay buffer 3×, resuspended in 40 μl of 2×Laemmli sample buffer and boiled for 5 minutes. Samples were resolved by SDS-PAGE electrophoresis, transferred to nitrocellulose, blotted overnight with 1 μ/ml polyclonal anti-Rap-1, and visualized by chemiluminescence.

Structure (SMILES): CC(C)(C)NCC(O)c1ccc(O)c(CO)n1 (stereo not shown) [ARA-211, 2-hydroxymethyl-3-hydroxy-6-(1-hydroxy-2-tert-butylaminoethyl) pyridine, dihydrochloride]
- Apoptosis (% Induction) [1]: 11.4 ± 1.9%
- growth of tumors [2]: suppressed tumor growth
- inhibition of tumor growth in cells ectopically expressing constitutively activated Mek-1 [3]: resistant
- Anchorage Independent Growth (% Inhibition) [4]: 7.3 ± 3.1%
- P-Erk ½ (% Inhibition) [5]: 0%
- Rap-1 activation (GTP-loaded Rap-1) ([6]; 10 μM, 1 hour): activated Rap-1
- Rap-1 activation after blocking PKA kinase activity ([6]; pre-treatment with 10 μM H89 (1 hr) followed by ARA-211): had no effect on the ability of ARA-211 to stimulate Rap-1 activation
